Results published in ChEMBL document CHEMBL4196012 (Eur J Med Chem, 2018).
In brackets after ≈: the same amount, converted by molar mass.

Key:
[1] = Partition coefficient, log P of the compound; type: physicochemical; conditions: octanol/water
[2] = system: Mycolicibacterium smegmatis; assay: Antibacterial activity against Mycobacterium smegmatis ATCC 607 after 48 to 72 hrs by double microdilution method; type: functional
[3] = system: Yersinia pseudotuberculosis; assay: Antibacterial activity against Yersinia pseudotuberculosis ATCC 911 after 18 to 24 hrs by double microdilution method; type: functional
Staphylococcus aureus [4] = assay: Antibacterial activity against Staphylococcus aureus ATCC 25923 after 18 to 24 hrs by double microdilution method; type: functional
Enterococcus faecalis = assay: Antibacterial activity against Enterococcus faecalis ATCC 29212 after 18 to 24 hrs by double microdilution method; type: functional
Bacillus cereus = assay: Antibacterial activity against Bacillus cereus 709 Roma after 18 to 24 hrs by double microdilution method; type: functional
Escherichia coli [5] = assay: Antibacterial activity against Escherichia coli ATCC 35218 after 18 to 24 hrs by double microdilution method; type: functional
Pseudomonas aeruginosa [6] = assay: Antibacterial activity against Pseudomonas aeruginosa ATCC 10145 after 18 to 24 hrs by double microdilution method; type: functional
Escherichia coli [7] = assay: Antibacterial activity against Escherichia coli NCDC 134 after overnight incubation by single disc method; type: functional
Pseudomonas aeruginosa [8] = assay: Antibacterial activity against Pseudomonas aeruginosa NCDC105 after overnight incubation by single disc method; type: functional
Staphylococcus aureus [9] = assay: Antibacterial activity against Staphylococcus aureus NCDC 110 after overnight incubation by single disc method; type: functional
Bacillus subtilis = assay: Antibacterial activity against Bacillus subtilis NCDC 71 after overnight incubation by single disc method; type: functional
Paenibacillus polymyxa = assay: Antibacterial activity against Paenibacillus polymyxa NCDC 64 after overnight incubation by single disc method; type: functional
Staphylococcus aureus [10] = assay: Antibacterial activity against methicillin-sensitive Staphylococcus aureus by CLSI agar dilution method; type: functional
Klebsiella pneumoniae = assay: Antibacterial activity against Klebsiella pneumoniae ATCC […] by CLSI agar dilution method; type: functional
[11] = system: Staphylococcus epidermidis; assay: Antibacterial activity against Staphylococcus epidermidis ATCC 12228 by CLSI agar dilution method; type: functional
[12] = system: Staphylococcus epidermidis; assay: Antibacterial activity against methicillin-sensitive Staphylococcus epidermidis by CLSI agar dilution method; type: functional
Staphylococcus aureus [13] = assay: Antibacterial activity against Staphylococcus aureus ATCC 29213 by CLSI agar dilution method; type: functional
Escherichia coli [14] = assay: Antibacterial activity against Escherichia coli ATCC […] by CLSI agar dilution method; type: functional

SMILES: COC(=O)c1cn(C2CC2)c2cc(N3CCNCC3)c(F)cc2c1=O
- logP [1]: -0.441

SMILES: CCCOC(=O)c1cn(C2CC2)c2cc(N3CCNCC3)c(F)cc2c1=O
- logP [1]: 0.437

SMILES: CCn1c(CNc2ccc(N3CCN(c4ccc(F)cc4)CC3)c(F)c2)nn(CN2CCN(c3cc4c(cc3F)c(=O)c(C(=O)O)cn4C3CC3)CC2)c1=S
- MIC [2]: < 0.24 µg/mL
- MIC [3]: < 0.24 µg/mL
- MIC (Staphylococcus aureus [4]): < 0.24 µg/mL
- MIC (Enterococcus faecalis): < 0.24 µg/mL
- MIC (Bacillus cereus): < 0.24 µg/mL
- MIC (Escherichia coli [5]): < 0.24 µg/mL
- MIC (Pseudomonas aeruginosa [6]): < 0.24 µg/mL

SMILES: O=C(CN1CCN(c2cc3c(cc2F)c(=O)c(C(=O)O)cn3C2CC2)CC1)Nc1nc2ccc([N+](=O)[O-])cc2s1
- MIC (Escherichia coli [7]): 3 to 125 µg/mL (≈ 5.3 to 221 µM)
- MIC (Pseudomonas aeruginosa [8]): 3 to 125 µg/mL (≈ 5.3 to 221 µM)
- MIC (Staphylococcus aureus [9]): 3 to 125 µg/mL (≈ 5.3 to 221 µM)
- MIC (Bacillus subtilis): 3 to 125 µg/mL (≈ 5.3 to 221 µM)
- MIC (Paenibacillus polymyxa): 3 to 125 µg/mL (≈ 5.3 to 221 µM)

SMILES: O=C(CN1CCN(c2cc3c(cc2F)c(=O)c(C(=O)O)cn3C2CC2)CC1)Nc1nc2ccc(Cl)cc2s1
- MIC (Escherichia coli [7]): 3 to 15 µg/mL (≈ 5.4 to 27 µM)
- MIC (Pseudomonas aeruginosa [8]): 3 to 15 µg/mL (≈ 5.4 to 27 µM)
- MIC (Staphylococcus aureus [9]): 3 to 15 µg/mL (≈ 5.4 to 27 µM)
- MIC (Bacillus subtilis): 3 to 15 µg/mL (≈ 5.4 to 27 µM)
- MIC (Paenibacillus polymyxa): 3 to 15 µg/mL (≈ 5.4 to 27 µM)

SMILES: COc1ccccc1N1CCN(Cc2nn(CN3CCN(c4cc5c(cc4F)c(=O)c(C(=O)O)cn5C4CC4)CC3)c(=O)n2Cc2ccccc2)CC1
- MIC [2]: < 0.24 µg/mL
- MIC [3]: < 0.24 µg/mL
- MIC (Staphylococcus aureus [4]): < 0.24 µg/mL
- MIC (Enterococcus faecalis): < 0.24 µg/mL
- MIC (Bacillus cereus): < 0.24 µg/mL
- MIC (Escherichia coli [5]): < 0.24 µg/mL
- MIC (Pseudomonas aeruginosa [6]): < 0.24 µg/mL

SMILES: COc1ccccc1N1CCN(Cc2nn(CN3CCN(c4cc5c(cc4F)c(=O)c(C(=O)O)cn5C4CC4)CC3)c(=S)n2Cc2ccccc2)CC1
- MIC [2]: < 0.24 µg/mL
- MIC [3]: < 0.24 µg/mL
- MIC (Staphylococcus aureus [4]): < 0.24 µg/mL
- MIC (Enterococcus faecalis): < 0.24 µg/mL
- MIC (Bacillus cereus): < 0.24 µg/mL
- MIC (Escherichia coli [5]): < 0.24 µg/mL
- MIC (Pseudomonas aeruginosa [6]): < 0.24 µg/mL

SMILES: O=C(O)c1cn(C2CC2)c2cc(N3CCN(Cn4nc(CNc5ccc(N6CCN(c7ccc(F)cc7)CC6)c(F)c5)n(Cc5ccccc5)c4=S)CC3)c(F)cc2c1=O
- MIC [2]: < 0.24 µg/mL
- MIC [3]: < 0.24 µg/mL
- MIC (Staphylococcus aureus [4]): < 0.24 µg/mL
- MIC (Enterococcus faecalis): < 0.24 µg/mL
- MIC (Bacillus cereus): < 0.24 µg/mL
- MIC (Escherichia coli [5]): < 0.24 µg/mL
- MIC (Pseudomonas aeruginosa [6]): < 0.24 µg/mL

SMILES: O=C(CN1CCN(c2cc3c(cc2F)c(=O)c(C(=O)O)cn3C2CC2)CC1)Nc1nc2c(Cl)ccc(Cl)c2s1
- MIC (Escherichia coli [7]): 3 to 125 µg/mL (≈ 5.08 to 212 µM)
- MIC (Pseudomonas aeruginosa [8]): 3 to 125 µg/mL (≈ 5.08 to 212 µM)
- MIC (Staphylococcus aureus [9]): 3 to 125 µg/mL (≈ 5.08 to 212 µM)
- MIC (Bacillus subtilis): 3 to 125 µg/mL (≈ 5.08 to 212 µM)
- MIC (Paenibacillus polymyxa): 3 to 125 µg/mL (≈ 5.08 to 212 µM)

SMILES: CCn1c(CN2CCN(c3ccccc3OC)CC2)nn(CN2CCN(c3cc4c(cc3F)c(=O)c(C(=O)O)cn4C3CC3)CC2)c1=S
- MIC [2]: < 0.24 µg/mL
- MIC [3]: < 0.24 µg/mL
- MIC (Staphylococcus aureus [4]): < 0.24 µg/mL
- MIC (Enterococcus faecalis): < 0.24 µg/mL
- MIC (Bacillus cereus): < 0.24 µg/mL
- MIC (Escherichia coli [5]): < 0.24 µg/mL
- MIC (Pseudomonas aeruginosa [6]): < 0.24 µg/mL

SMILES: O=C(O)c1cn(C2CC2)c2cc(N3CCN(Cn4nc(CNc5ccc(N6CCN(c7ccc(F)cc7)CC6)c(F)c5)n(-c5ccccc5)c4=S)CC3)c(F)cc2c1=O
- MIC [2]: < 0.24 µg/mL
- MIC [3]: < 0.24 µg/mL
- MIC (Staphylococcus aureus [4]): < 0.24 µg/mL
- MIC (Enterococcus faecalis): < 0.24 µg/mL
- MIC (Bacillus cereus): < 0.24 µg/mL
- MIC (Escherichia coli [5]): < 0.24 µg/mL
- MIC (Pseudomonas aeruginosa [6]): < 0.24 µg/mL

SMILES: COc1ccccc1N1CCN(Cc2nn(CN3CCN(c4cc5c(cc4F)c(=O)c(C(=O)O)cn5C4CC4)CC3)c(=S)n2-c2ccccc2)CC1
- MIC [2]: < 0.24 µg/mL
- MIC [3]: < 0.24 µg/mL
- MIC (Staphylococcus aureus [4]): < 0.24 µg/mL
- MIC (Enterococcus faecalis): < 0.24 µg/mL
- MIC (Bacillus cereus): < 0.24 µg/mL
- MIC (Escherichia coli [5]): < 0.24 µg/mL
- MIC (Pseudomonas aeruginosa [6]): < 0.24 µg/mL

SMILES: O=C(O)c1cn(C2CC2)c2cc(N3CCN(CC(O)Cn4cc([N+](=O)[O-])nc4Cl)CC3)c(F)cc2c1=O (centres undefined)
- MIC (Staphylococcus aureus [10]): 2 to 32 µg/mL (≈ 3.74 to 59.8 µM)
- MIC (Klebsiella pneumoniae): 2 to 32 µg/mL (≈ 3.74 to 59.8 µM)
- MIC [11]: 2 to 32 µg/mL (≈ 3.74 to 59.8 µM)
- MIC [12]: 2 to 32 µg/mL (≈ 3.74 to 59.8 µM)
- MIC (Staphylococcus aureus [13]): 2 to 32 µg/mL (≈ 3.74 to 59.8 µM)
- MIC (Escherichia coli [14]): 2 to 32 µg/mL (≈ 3.74 to 59.8 µM)

SMILES: CCOC(=O)c1cn(C2CC2)c2cc(N3CCNCC3)c(F)cc2c1=O [CIPROFLOXACIN ETHYL ESTER]
- logP [1]: -0.065

SMILES: COc1c(N2CCNC(C)C2)c(F)cc2c(=O)c(C(=O)O)cn(C3CC3)c12 (centres undefined) [GATIFLOXACIN]
- MIC (Staphylococcus aureus [10]): 0.06 to 16 µg/mL (≈ 0.16 to 42.6 µM)
- MIC (Klebsiella pneumoniae): 0.06 to 16 µg/mL (≈ 0.16 to 42.6 µM)
- MIC (Escherichia coli [7]): 5 to 100 µg/mL (≈ 13.3 to 266 µM)
- MIC [11]: 0.06 to 16 µg/mL (≈ 0.16 to 42.6 µM)
- MIC [12]: 0.06 to 16 µg/mL (≈ 0.16 to 42.6 µM)
- MIC (Pseudomonas aeruginosa [8]): 5 to 100 µg/mL (≈ 13.3 to 266 µM)
- MIC (Staphylococcus aureus [9]): 5 to 100 µg/mL (≈ 13.3 to 266 µM)
- MIC (Bacillus subtilis): 5 to 100 µg/mL (≈ 13.3 to 266 µM)
- MIC (Staphylococcus aureus [13]): 0.06 to 16 µg/mL (≈ 0.16 to 42.6 µM)
- MIC (Paenibacillus polymyxa): 5 to 100 µg/mL (≈ 13.3 to 266 µM)
- MIC (Escherichia coli [14]): 0.06 to 16 µg/mL (≈ 0.16 to 42.6 µM)
